Values joined by “and” are separate entries in the source; they are usually repeats but may differ in a detail not shown here. Identical values can stand only once.
Experiments:
athymic rats [1] = details: rat, in vivo
From the text: (§1) The administration of the calcineurin inhibitors was achieved through formulation into the chow fed to the animals (athymic rats).

[2] = format: in vivo, Rat (Rattus norvegicus)
From the text: Prior to implant, 30 male athymic nude rats (described in Table 19) were randomly assigned to three groups of ten animals each, and unbiased weight distribution was confirmed. […] At implant, each animal was surgically implanted subcutaneously with two VCTX test articles. The animals then continued to receive their respective chow. Group 1 and 3 animals received their respective chow for 12 weeks, while Group 2 animals only tolerated the tacrolimus-containing chow for 3 weeks. […] At 12 weeks, all animals were switched to standard rodent chow (Teklad 2920X, Envigo).

PEC-211 cells = experiment: In vitro differentiation of PEC-211 to stage 6 in presence of Tacrolimus, flow cytometry; format: cell-based, human; details: 0.1 μM, 10 days
Procedure: Evaluation of the PEC-211 cells in the presence of Tacrolimus was performed in vitro. Stage 4 Pancreatic progenitor PEC-211 cells were further differentiated to stage 6 to produce matured islet like cell population in presence of 0.1 μM of Tacrolimus for 10 days. Control PEC-211 cells were not treated with Tacrolimus.

athymic rats [3] = experiment: Previous in vivo sensitivity studies of a similar combination product with unmodified cells; details: unmodified-cell combination product, drug in chow
From the text: as §1

VCTX211 implants = experiment: GSIS test of VCTX211 implants under calcineurin inhibitor chow; format: in vivo, Rat (Rattus norvegicus);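 also: athymic nude rats each carrying two subcutaneous VCTX211-loaded perforated delivery devices, fed calcineurin inhibitor or control chow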
From the text: Provided in this Example are in vivo efficacy evaluations of VCTX211 combination products (e.g., genetically modified cells loaded into a perforated delivery device) to assess potential sensitivity of exposure to calcineurin inhibitors. In this study, athymic nude rats each received two implants of compositions comprising genetically modified cells disclosed herein (e.g., VCTX211) each.
VCTX211 test articles (e.g., perforated delivery devices loaded with genetically modified cells disclosed herein) were first generated with pancreatic endoderm cell (PEC-211; e.g., comprising B2M KO and KI of TNFAIP3 and PD-L1; and KO of TXNIP and KI of MANF and HLA-E) aggregates derived from VCTX211 stem cell progenitor cells. To do so, the thaw and culture of PEC-211 aggregates was first performed in roller bottles. On the third day post-thaw, 20 μL aliquots of settled pellet volume (approximately 9×10^6 cells) were prepared and loaded into sterilized PD20 devices (e.g., perforated cell delivery device) to produce VCTX test articles. […] After formulation, test articles were maintained at room temperature in 10 mL storage tubes with media for 2 days.
Prior to implant, 30 male athymic nude rats (described in Table 19) were randomly assigned to three groups of ten animals each, and unbiased weight distribution was confirmed. […] At implant, each animal was surgically implanted subcutaneously with two VCTX test articles. The animals then continued to receive their respective chow. […] At 12 weeks, all animals were switched to standard rodent chow (Teklad 2920X, Envigo).

[4] = individual animals, serum, 90 min after glucose
[5] = individual animals, serum, fasted

SMILES: C=CC[C@@H]1/C=C(\C)C[C@H](C)C[C@H](OC)[C@H]2O[C@@](O)(C(=O)C(=O)N3CCCC[C@H]3C(=O)O[C@H](/C(C)=C/[C@@H]3CC[C@@H](O)[C@H](OC)C3)[C@H](C)[C@@H](O)CC1=O)[C@H](C)C[C@@H]2OC [TAC, tacrolimus]
- dose-limiting finding preventing increased exposure (athymic rats [1]): toxicity resulting in inappetence and severe weight loss
- exposure levels versus target levels for prophylactic use in clinical organ transplantation (athymic rats [1]): below target levels
- animals died or euthanized in extremis ([2]; by 3 weeks, group of 10): 3 animals
- average loss of body weight ([2]; rat, in vivo): 8%
- effect on in vitro differentiation to islet cells (PEC-211 cells): did not affect
- CHGA-NKX6.1+ PDX1+ or- (Pancreatic Progenitor) (PEC-211 cells; Stage 6 cells, flow cytometry): 16.9
- Total CHGA+ (PEC-211 cells; Stage 6 cells, flow cytometry): 76.3
- Total GCG+ (PEC-211 cells; Stage 6 cells, flow cytometry): 36.6
- Total INS+ (PEC-211 cells; Stage 6 cells, flow cytometry): 70.4
- Total NKX6.1+ (PEC-211 cells; Stage 6 cells, flow cytometry): 48.7
- effect on development or function of beta cells derived from the implants (athymic rats [3]): did not appear to affect
- functional development of VCTX211 grafts, evaluated with GSIS tests, compared to control animals (VCTX211 implants; cyclosporine A 12 weeks, tacrolimus 3 weeks): not affected
- C-peptide, 16 Weeks, 60 min (VCTX211 implants; individual animals, serum, 60 min after glucose): 1131 pM and 1798 pM and 720 pM and 1365 pM and 3073 pM and 700 pM
- C-peptide, 12 Weeks, 90 min (VCTX211 implants; [4]): 1933 pM and 1504 pM and 627 pM and 428 pM and 1178 pM and 1271 pM
- C-peptide, 16 Weeks, 90 min (VCTX211 implants; [4]): 1312 pM and 1545 pM and 1271 pM and 1207 pM and 1782 pM and 1140 pM
- C-peptide, 12 Weeks, Fast (VCTX211 implants; [5]): 113 pM and 123 pM and 119 pM and 107 pM and 147 pM and 109 pM
- C-peptide, 16 Weeks, Fast (VCTX211 implants; [5]): 282 pM and 253 pM and 273 pM and 227 pM and 302 pM and 219 pM
